Data on eight compounds can be found in EP0414569A2, “Three-liquid-phase epoxidation of perfluoroolefins” (E.I. DU PONT DE NEMOURS AND COMPANY, priority 1989, dated 1991).

The nature of series [1]: Determination of the HFP-HFPO partition coefficient (alpha) in an organic liquid: HFP/HFPO gas mixture passed through the liquid, dissolved gases measured by gas chromatography. Type of series: physicochemical. To be noted: HFP-HFPO partition coefficient of the organic liquid, atmospheric pressure. As to the method: A simple method of determining this preference (using HFP over HFPO as an example of other olefins and their epoxides covered by this invention) is to determine the partition coefficient for the system HFPO-HFP-organic liquid. Determination of the partition coefficient (alpha) is carried out by passing a mixture of HFP and HFPO gas through the organic liquid at atmospheric pressure while agitating vigorously and maintaining a constant temperature. The gas is passed through the liquid long enough to ensure that the liquid is completely saturated with the gases and to let the gas phase composition equilibrate to the feed composition. The organic liquid phase is then sampled and gas chromatography is used to determine the amount of the gaseous components which had been dissolved in the liquid phase. The partition coefficient, alpha, is then calculated by the following equation: [formula]
Using this method, partition coefficients were determined for a number of organic liquids at -15°C and 0°C, with the results shown below: […]

Series [2] in a line: Miscibility of toluene with HFP and HFPO. To be noted: in toluene; miscibility sharply affected by temperature. Type of series: physicochemical. An excerpt: Certain organic liquids show more affinity for perfluoroolefins than for their epoxides and they are desired for use in this invention. […] With mixtures of HFP and HFPO as would exist in a continuous back-mixed reactor, immiscibility exists at higher temperatures. It is believed that organic liquids which are substantially halogenated will not form two phases with HFP or HFPO. […] Therefore, a hydrogen-containing organic liquid is used.

Consider `FC(F)(F)C(F)(F)C(F)(F)C(F)(F)C1(F)OC(F)(F)C(F)(F)C1(F)F` (centres unmarked) [FC-75, Perfluoro(butyl tetrahydrofurane)], for which, in series [1], the “Alpha at 0°C” value was 1.0 and the “Alpha at -15°C” value is 1.0.
With `FC(F)=C(F)C(F)(F)F` [HFP, hexafluoropropylene], in series [2], the “concentration at which toluene becomes immiscible” value is 20-40 wt %.
As to `FC(F)(F)C1(F)OC1(F)F` (centres unmarked) [HFPO, hexafluoropropylene epoxide], the “concentration at which toluene becomes immiscible” value in series [2] is given as 3-6 wt %.
Turning to `COc1ccccc1` [anisole], in series [1], the “Alpha at 0°C” value is recorded as 2.5 and the “Alpha at -15°C” value was determined as 2.4.
The corresponding values for `Clc1ccccc1` [chlorobenzene] are 2.1 and 1.9.
For the compound `Cc1cc(C)cc(C)c1` [mesitylene], in series [1], the “Alpha at 0°C” value stood at 2.2 and the “Alpha at -15°C” value is 2.3.
With `CCCCCCCCCC` [n-decane], in series [1], the “Alpha at 0°C” value turned out to be 1.3 and the “Alpha at -15°C” value is listed as 1.6.
The corresponding values for dichlorobenzene are 2.1 and 2.0.
